≈ marks a conversion by molar mass, not a printed value.
Experiments:
[1] = Selectivity ratio of IC50 for human THP-1 cells to MIC for Clostridium difficile ATCC 43255; assay type: toxicity
THP-1 = assay: Cytotoxicity against human THP-1 cells assessed as increase in LDH release incubate for 24 hrs by trypan-blue staining based analysis; assay type: functional, cell-based; details: THP-1, 24 h
Clostridioides difficile = assay: Antibacterial activity against Clostridium difficile ATCC 43255 measured after 48 hrs by two fold serial dilution method; assay type: functional

`Oc1ccc(-c2nc(-c3ccc(Oc4ccc(C(F)(F)F)cc4)cc3)no2)cc1` gave a selectivity ratio [1] of 9, an IC50 (THP-1) of 17 µg/mL (≈ 42.7 µM) and an MIC (Clostridioides difficile) of 2 µg/mL (≈ 5.02 µM).
For `Oc1ccc(-c2nc(-c3ccc(Oc4cccc(I)c4)cc3)no2)cc1`, the selectivity ratio [1] was 4 and the IC50 (THP-1) was 17 µg/mL (≈ 37.3 µM).
With `Oc1ccc(-c2nc(-c3ccc(Oc4ccccc4)cc3)no2)cc1` the selectivity ratio [1] was 8, the IC50 (THP-1) was 17 µg/mL (≈ 51.5 µM) and the MIC (Clostridioides difficile) was 2 µg/mL (≈ 6.05 µM).
In the case of `O=[N+]([O-])c1c[nH]nc1-c1nc(-c2ccc(OC(F)(F)F)cc2)no1`, the selectivity ratio [1] is reported as 6, the IC50 (THP-1) is reported as 25 µg/mL (≈ 73.3 µM) and the MIC (Clostridioides difficile) is reported as 4 µg/mL (≈ 11.7 µM).
Work on `c1cc(-c2noc(-c3ccc4c(c3)CCN4)n2)ccc1OC1CCCC1` yielded an MIC (Clostridioides difficile) of over 128 µg/mL.
Compound `Oc1ccc(Nc2nc(-c3ccc(OC4CCCC4)cc3)no2)cc1` has an MIC (Clostridioides difficile) of 32 µg/mL (≈ 94.8 µM).
`FC(F)(F)c1ccc(Oc2ccc(-c3noc(-c4n[nH]cc4NC4CCCCC4)n3)cc2)cc1` gave an MIC (Clostridioides difficile) of over 128 µg/mL.
In the case of `OCC#Cc1c[nH]nc1-c1nc(-c2ccc(Oc3ccc(C(F)(F)F)cc3)cc2)no1`, the MIC (Clostridioides difficile) is reported as over 128 µg/mL.
In the case of `Oc1ccc(-c2nc(-c3ccc(OC4CC4)cc3)no2)cc1`, the MIC (Clostridioides difficile) is reported as over 128 µg/mL.
`O=C(Nc1c[nH]nc1-c1nc(-c2ccc(Oc3ccc(C(F)(F)F)cc3)cc2)no1)c1ccccc1` gave an MIC (Clostridioides difficile) of over 128 µg/mL.
`c1cc2cc(-c3nc(-c4ccc5c(c4)OCO5)no3)ccc2[nH]1` showed an MIC (Clostridioides difficile) of over 128 µg/mL.
Compound `Oc1ccc(-c2nc(-c3ccc(OC4CCNCC4)cc3)no2)cc1` has an MIC (Clostridioides difficile) of 64 µg/mL (≈ 190 µM).
With `Oc1ccc(-c2nc(-c3ccc(OC4CCCCC4Br)cc3)no2)cc1` (configuration not stated) the selectivity ratio [1] was 4, the IC50 (THP-1) was 8.4 µg/mL (≈ 20.2 µM) and the MIC (Clostridioides difficile) was 2 µg/mL (≈ 4.82 µM).
